Source: US8394971B2, “Indole derivatives as selective androgen receptor modulators (SARMS)” (Janssen Pharmaceutica N.V., priority 2004, dated 2013)
“And” between values parts separate entries of the source, which are not always exact repeats. Identical values can stand only once.

Assays:
[1] = tested on: testosterone-enhanced ventral prostate and seminal vesicle weights in castrated male Sprague Dawley rats; test: Ventral Prostate and Seminal Vesicle Weight In Vivo Assay; design: species or system rat; details: immature castrated rats; once daily for five days, usually orally at 40 mg/kg, with testosterone propionate 2 mg/kg s.c.
In short: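 Immature (~50 g) castrated Sprague Dawley rats dosed once daily for five days with compound (usually oral, 40 mg/kg, cyclodextrin or methylcellulose vehicle) plus testosterone propionate 2 mg/kg s.c. Wet ventral prostate and seminal vesicle weights taken on day six; activity judged by prostate weight or body-weight-adjusted % inhibition.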

[2] = molecular target: T1, androgen receptor (adenovirus AdEasy+rAR in L929 cells) (Rattus norvegicus, UniProt P15207); test: L929 Androgen Receptor Functional Assay, Adenovirus Transduction; assay type: cell-based; details: for % Activity: L929 agonist testing
T1 construct: expressed in transfected cells
T1 sequence (P15207 1-902): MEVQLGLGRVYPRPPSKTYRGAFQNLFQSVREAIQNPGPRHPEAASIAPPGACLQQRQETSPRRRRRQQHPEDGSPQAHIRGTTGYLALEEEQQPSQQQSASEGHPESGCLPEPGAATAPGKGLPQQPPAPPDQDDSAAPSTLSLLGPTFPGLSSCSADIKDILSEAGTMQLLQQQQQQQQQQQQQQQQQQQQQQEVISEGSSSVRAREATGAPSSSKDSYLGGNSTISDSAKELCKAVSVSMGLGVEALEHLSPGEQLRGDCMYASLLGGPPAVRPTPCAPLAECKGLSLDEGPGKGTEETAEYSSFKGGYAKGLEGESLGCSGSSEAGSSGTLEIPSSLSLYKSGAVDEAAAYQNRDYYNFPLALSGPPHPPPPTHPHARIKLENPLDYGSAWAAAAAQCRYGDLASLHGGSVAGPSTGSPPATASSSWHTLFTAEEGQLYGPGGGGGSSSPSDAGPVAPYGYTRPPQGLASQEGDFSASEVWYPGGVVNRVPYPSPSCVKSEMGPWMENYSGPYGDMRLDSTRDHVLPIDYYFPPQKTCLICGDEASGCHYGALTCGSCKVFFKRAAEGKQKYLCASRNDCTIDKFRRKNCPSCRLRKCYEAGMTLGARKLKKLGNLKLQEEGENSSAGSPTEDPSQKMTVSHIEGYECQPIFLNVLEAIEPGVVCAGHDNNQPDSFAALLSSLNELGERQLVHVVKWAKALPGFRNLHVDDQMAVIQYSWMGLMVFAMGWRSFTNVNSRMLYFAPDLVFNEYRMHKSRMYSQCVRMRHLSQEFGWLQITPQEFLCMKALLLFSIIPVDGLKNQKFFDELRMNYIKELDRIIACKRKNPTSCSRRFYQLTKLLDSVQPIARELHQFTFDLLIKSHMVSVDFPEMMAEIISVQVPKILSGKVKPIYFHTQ
Protocol: L929 cells were plated in 96-well plates at 20,000 cells per well, in DMEM/F12 (GIBCO) containing 10% (v/v) charcoal-treated fetal bovine serum (Hyclone) and lacking phenol red. The plates were then incubated overnight at 37° C. in 5% (v/v) humidified CO2.
Test compound dilutions were prepared in 100% (v/v) DMSO, if necessary. Each dilution was made to 1250× the final desired assay concentration.
First, 2 mL of DMEM/F12 lacking phenol red was pipetted into the wells of a 2-mL 96-well assay block. Next, 4 μL of the 1250× test compound dilutions were pipetted into each well of the assay block. The mixtures within the well were then carefully mixed by pipette.
In a 15 mL or 50 mL sterile centrifuge tube, a 2.5 nM (2.5×) dilution of R1881 (methyl-trienolone) in DMEM/F12 lacking phenol red was prepared.
In a second 15 mL or 50 mL centrifuge tube a solution containing an equal volume of DMEM to the first and an equal volume of 100% (v/v) DMSO to the volume of R1881 used in the first tube was prepared.
In a 15 mL or 50 mL sterile centrifuge tube, a dilution in DMEM/F12 of the adenovirus AdEasy+rAR at an moi of 1:500 per well was prepared.
The medium was removed from the 96-well plates by inversion and dried, inverted, very briefly. As soon as possible after medium removal, 40 μL of the diluted unlabeled test compound was added to each well, in duplicate. To each well designated for antagonist testing was added 40 μL of the 2.5 nM R1881 dilution to the wells for antagonist testing. To each well designated for agonist testing was added 40 μL of the DMSO dilution. Then 20 μL of the diluted adenovirus were added to all wells. The plates were incubated for 48 hours at 37° C. in 5% (v/v) humidified CO2.
To each well was added 100 μL of Steady-Glo luciferase assay substrate (Promega) and the plates were placed on a rotary shaker for 1 min. The plates were then incubated at room temperature in the dark for one hour. The contents of each well were then transferred to a white microtiter plate (Packard) and read on a Luminoskan Ascent (Thermo Lab Systems).
L929 AR percent activity was determined by testing dilutions of the test compound using a concentration of 3000 nM unless otherwise noted. L929 percent inhibition was determined by testing dilutions of the test compound using a concentration of 3000 nM. […] Luciferase activity per well were measured and EC50s and IC50s determined by linear regression.

[3] = molecular target: T2, androgen receptor (adenovirus AdEasy+rAR in COS-7 cells) (Rattus norvegicus, UniProt P15207); test: COS-7 Whole-Cell Androgen Receptor Binding Assay, Adenovirus Transduction; details: COS binding; 3000 nM unless otherwise noted
T2 construct: expressed in transfected cells
T2 sequence (P15207 1-902): T1 sequence (P15207 1-902)
Protocol: COS-7 cells were plated in 96-well plates at 20,000 cells per well, in a solution of DMEM/F12 (GIBCO) containing 10% (v/v) charcoal-treated fetal bovine serum (Hyclone) and lacking phenol red. The cells were then incubated overnight at 37° C. in 5% (v/v) humidified CO2.
Test compound solutions were prepared by diluting the test compound in 100% (v/v) DMSO, if necessary.
Next, 1 mL of DMEM/F12 lacking phenol red was pipetted into each of the wells of a 2-mL 96-well assay block. […] The wells were carefully mixed by pipette.
In a 15 mL or 50 mL sterile centrifuge tube, a dilution in DMEM/F12 of the adenovirus AdEasy+rAR at a moi of 1:50 per well was prepared.
The medium was removed from the 96-well plates by inversion and the plates dried very briefly, inverted, on a sterile towel. As soon as possible after medium removal, 40 μL of the diluted test compound was added to each well, in duplicate. […] The plates were then incubated for 48 hours at 37° C. in 5% (v/v) humidified CO2.
The medium was removed from the above incubated plates by inversion and dried. Each well was then washed with 0.35 mL of 1×PBS. The PBS was then removed from the plates by inversion and the plates dried.
To each well was then added 50 μL of 0.5% (v/v) Triton X-100 (Sigma) in 1×PBS and the plates placed on a rotary shaker for 5 min. The contents of each well were then transferred to an OptiPlate-96 (Packard) scintillation plate. To each well was then added 0.2 mL of Microscint-20 (Packard) and the wells counted on a TopCount (Packard).
[…] Counts per well were measured and percents of inhibition determined. […] Counts per well were measured and IC50s determined by linear regression.

| Structure (SMILES) | active / inactive (inhibition of testosterone-enhanced prostate weight) [1] | inhibition at 3 µM ([2]; L929, L929 antagonist testing with R1881, 3000 nM) [%] | % Activity ([2]; 3000 nM) [%] | % Inhibition [3] | % Activity ([2]; 3000 nM, 3 µM) | inhibition at 3 µM [3] [%] | % Activity ([2]; @ 8000 nM) |
| --- | --- | --- | --- | --- | --- | --- | --- |
| CCS(=O)(=O)CC(C)(O)c1[nH]c2cc(C(F)(F)F)c(C#N)cc2c1C (single isomer, unassigned) [Compound #251, 2-(2-Ethanesulfonyl-1-hydroxy-1-methyl-ethyl)-3-methyl-6-trifluoromethyl-1H-indole-5-carbonitrile] | active | 90 | −1 | 85% |  |  |  |
| CC(O)(CSCC(F)(F)F)c1cc2cc([N+](=O)[O-])c(C(F)(F)F)cc2[nH]1 (single isomer, unassigned) [compound 202] | active |  |  | 50% | 1% |  |  |
| CCSCC(C)(O)c1cc2cc([N+](=O)[O-])c(C(F)(F)F)cc2n1C (single isomer, unassigned) [compound 231] | active |  |  | 78% | 0% and −1% | 73 |  |
| CC[S+]([O-])C[C@](C)(O)c1cc2cc([N+](=O)[O-])c(C(F)(F)F)cc2[nH]1 (stereo in doubt) [Compound #155, 1-Ethanesulfinyl-2-(5-nitro-6-trifluoromethyl-1H-indol-2-yl)-propan-2-ol] | inactive |  | 2 |  |  | 35 |  |
| CCS(=O)(=O)C[C@](C)(O)c1cc2cc([N+](=O)[O-])c(C(F)(F)F)cc2[nH]1 [Compound #156, 1-Ethanesulfonyl-2-(5-nitro-6-trifluoromethyl-1H-indol-2-yl)-propan-2-ol] | inactive |  | 2 | 52% |  | 42 |  |
| CC(O)(CCS(C)(=O)=O)c1cc2cc([N+](=O)[O-])c(C(F)(F)F)cc2[nH]1 (centres unmarked) [compound 49] | inactive |  | 2 |  |  | 30 |  |
| CC(O)(CSc1ccc(N)cc1)c1cc2cc(Cl)c(C(F)(F)F)cc2[nH]1 (centres unmarked) [compound 104] | inactive |  | 9 |  |  | 94 |  |
| CC(O)(CS(=O)(=O)c1ccc(N)cc1)c1cc2cc(Cl)c(C(F)(F)F)cc2[nH]1 (centres unmarked) [compound 118] | inactive |  |  |  |  | 62 | −2 @ 8000 nM % |
| CN(C)c1ccccc1SCC(C)(O)c1cc2cc(Cl)c(C(F)(F)F)cc2[nH]1 (centres unmarked) [compound 127] | inactive |  | −5 | 41% and 74% |  |  |  |
| COc1ccc(SCC(C)(O)c2cc3cc(Cl)c(C(F)(F)F)cc3[nH]2)cc1 (centres unmarked) [compound 131] | inactive |  | −5 |  |  | 84 |  |
| CSCC(C)(O)c1cc2cc(Cl)c(C(F)(F)F)cc2[nH]1 (centres unmarked) [compound 135] | inactive |  | 0 |  |  | 98 |  |
| CSCC(C)(O)c1cc2cc(C#N)c(C(F)(F)F)cc2[nH]1 (centres unmarked) [compound 136] | active |  | 0 |  |  | 4.8 |  |
| CC(O)(CS(C)(=O)=O)c1cc2cc(Cl)c(C(F)(F)F)cc2[nH]1 (centres unmarked) [compound 138] | inactive |  | 0 |  |  | 78 |  |
| CSCC(C)(O)c1cc2cc([N+](=O)[O-])c(C(F)(F)F)cc2[nH]1 (centres unmarked) [compound 139] | active |  |  | 97% | 0% and 1% | 94 |  |
| CC(O)(CS(C)(=O)=O)c1cc2cc([N+](=O)[O-])c(C(F)(F)F)cc2[nH]1 (centres unmarked) [compound 140] | active |  | 0 | 51.5% |  |  |  |
| CCSCC(C)(O)c1cc2cc([N+](=O)[O-])c(C(F)(F)F)cc2n1S(C)(=O)=O (centres unmarked) [compound 141] | inactive |  | 0 |  |  | 42 |  |
| CCS(=O)(=O)CC(C)(O)c1cc2cc([N+](=O)[O-])c(C(F)(F)F)cc2[nH]1 (centres unmarked) [compound 143] | active |  | 0 |  |  | 68 |  |
| CCSCC(O)c1cc2cc([N+](=O)[O-])c(C(F)(F)F)cc2[nH]1 (centres unmarked) [compound 158] | inactive |  |  | 56% | 3% and 2% | 62 |  |
| CCSCC(C)(O)c1cc2cc(F)c(C(F)(F)F)cc2[nH]1 (centres unmarked) [compound 159] | active |  | 2 |  |  | 90 |  |
| CC(O)(CSCc1ccccc1)c1cc2cc([N+](=O)[O-])c(C(F)(F)F)cc2[nH]1 (centres unmarked) [compound 160] | inactive |  | 1 |  |  | 84 |  |
| CC(C)SCC(C)(O)c1cc2cc([N+](=O)[O-])c(C(F)(F)F)cc2[nH]1 (centres unmarked) [compound 164] | inactive |  | 2 |  |  | 68 |  |
